Structures can show the parent of a compound that is named as a salt.
Legend:
autotransplanted kidney = assay: Rat model of kidney isograft autotransplantation (ATx) after cold storage in preservation solution; type: in vivo; details: for Kidney function / serum AST levels / serum creatinine levels: vs preservation solution without S1R agonist; for NGAL levels: compared to Custodiol; for Tubular lumen areas (tubular dilatation): vs standard preservation solution, PAS-stained sections
Method: The institutional committee on animal welfare approved all experiments. Experiments were performed on Male Wistar rats weighing 205±15 g (Toxi-Coop Toxicological Research Center, Dunakeszi, Hungary). Animals were housed in a temperature-controlled (22±1° C.) room with alternating light and dark cycles and had free access to standard rat chow and water. Male Wistar rats (n=8/group) were anesthetized with isoflurane (3% vol/vol) mixed with synthetic air (1 L/min) before surgery and placed on a temperature-controlled table to maintain core body temperature. Left kidneys were perfused with cold Custodiol perfusion solution (Na^+: 15 mmol/L; K^+: 9 mmol/L; Mg^2+: 4 mmol/L; Ca^2+: 0.015 mmol/L; histidine: 198 mmol/L; tryptophan: 2 mmol/L; ketoglutarate: 1 mmol/L; mannitol: 30 mmol/L) (Franz Kohler Chemie GMBH, Bensheim, Germany), then removed from the animal: kidneys were placed into a container for 2 hours filled with either (i) cold Custodiol perfusion solution (ATx) or (ii) cold Custodiol perfusion solution containing 0.003 mg/mL FLU (ATx FLU) or (iii) cold Custodiol perfusion solution containing 0.003 mg/mL SA4503 (ATx SA). After 2 hours kidneys were placed back into the rats and end-to-end anastomoses of the renal artery, vein and ureter were performed. […] Total warm ischemia time was 35 min in all animals. Sham operated animals served as controls. After 24 hours of reperfusion, blood samples were collected from the abdominal aorta, the remnant kidneys were harvested, instantly snap-frozen in liquid nitrogen, and stored at -80° C. or fixed in buffered 8% formalin for further processing. The experimental design of the autotransplantation is shown in FIG. 9 Metabolic (glucose, fructosamine, total and HDL-cholesterol, triglycerides) and renal functional parameters from rat sera (sodium, potassium, creatinine, blood urea nitrogen (BUN), aspartate transaminase (AST)) were determined with commercially available kits on a Hitachi 912 photometric chemistry analyzer. Kidneys were fixed in 8% formalin, embedded into paraffin and 5 μm sections were stained with periodic acid-Schiff (PAS) to assess tubular injury. Images were taken with Panoramic Viewer (3[…] Ltd., Budapest, Hungary). Tubular luminal areas were measured in three fields of magnification ×200 per rat. The analysis was performed in a double-blinded fashion with computer-assisted morphometry using Adobe Photoshop CS6 (Adobe Systems Corporation, San José, Calif., USA) and Image J (National Institute of Health, Bethesda, MD, USA) softwares on a Zeiss Axiolmager A1 light-microscope (Carl Zeiss A G, Jena, Germany). Formalin-fixed kidney samples were embedded into paraffin. 5 μm thick sections were mounted on Superfrost slides (Thermo Shandon, Runcorn, UK) and were manually deparaffinized. Assay was performed using the Apoptag® Peroxidase In situ Apoptosis Detection Kit (Millipore, Billerica, MA, USA). Briefly, samples were pretreated with Proteinase K for 15 min. Following repeated washing steps endogenous peroxidase activity was blocked by 3% H2O2 in methanol for 5 min at room temperature. Next, slides were incubated in reaction buffer containing 30% TdT enzyme for 1 hour at room temperature after which Stop buffer was added. Slides were incubated with anti-Dioxigenin Conjugate for 30 min at room temperature. Slides were developed using DAB peroxidase substrate. The areas of TUNEL-positive apoptotic nuclei were measured in three fields of magnification ×200 per rat. The analysis was performed using Adobe Photoshop CS6 (Adobe Systems Corporation, San José, Calif., USA) and Image J (National Institute of Health, Bethesda, MD, USA) softwares on a Zeiss Axiolmager A1 light-microscope (Carl Zeiss A G, Jena, Germany). Formalin-fixed kidney samples were embedded into paraffin. One to two micron thick sections were mounted on Superfrost slides (Thermo Shandon, Runcorn, UK) and were manually deparaffinized. Endogenous peroxidase activity was blocked by 3% H2O2 in methanol for 20 min at room temperature. […]

isolated kidney = assay: Rat model of kidney cold ischemia (cold perfusion and storage of isolated kidney); details: for reducing, delaying or preventing functional and/or structural damage of a stored organ or tissue (comparison of the three agonists): fluvoxamine, SA-4503 and PRE-84 compared; for mRNA levels of Bcl-2 / mRNA levels of BAX: stored kidneys; for mRNA levels of BAX: difference not statistically significant
Method: Male Wistar rats were anesthetized with isoflurane (3% vol/vol) mixed with synthetic air (1 L/min) before surgery and placed on a temperature-controlled table to maintain core body temperature. Kidneys (n=6/group) were washed through the renal arteries with 5 ml cold solution, then removed from the animal and placed into a container filled with the same solution for either 2 or 3 hours. […] 3h CP); (viii) Custodiol containing 0.003 mg/mL FLU, 3 hours of cold perfusion (Cust. […] After cold ischemia kidneys were immediately snap-frozen in liquid nitrogen and stored at −80° C. or fixed in buffered 8% formalin for further processing.
Kidneys were fixed in 8% formalin, embedded into paraffin and 5 μm sections were stained with periodic acid-Schiff (PAS) to assess tubular injury. Images were taken with Panoramic Viewer (3[…] Ltd., Budapest, Hungary). Tubular luminal areas were measured in three fields of magnification ×200 per rat. The analysis was performed in a double-blinded fashion with computer-assisted morphometry using Adobe Photoshop CS6 (Adobe Systems Corporation, San José, Calif., USA) and Image J (National Institute of Health, Bethesda, MD, USA) softwares on a Zeiss Axiolmager A1 light-microscope (Carl Zeiss A G, Jena, Germany).
Total RNA was isolated from kidneys with GeneAid Total RNA Mini Kit (Geneaid Biotech Ltd., New Taipei City, Taiwan). 500 ng RNA was reverse-transcribed using Maxima First Strand cDNA Synthesis Kit for RT-qPCR (Thermo Scientific, Waltham, MA, USA) to generate first-strand cDNA. mRNA expressions of Ngal (Lcn2), Kim1, Mcp1, IL-1α (Il1α), IL-6 (Il6), IL-10 (Il10), TNF-α (Tnf), HO-1 (Hmox1), Bax, Bcl-2 (Bcl2), 18S ribosomal RNA (Rn18s) and β-actin (Actb) were determined with real-time RT-PCR using Light Cycler 480 SYBR Green 1 Master enzyme mix on a Light Cycler system (Roche Diagnostics, Mannheim, Germany). The reaction mix contained 10 pmol/μl of each PCR primer (Table 1; Integrated DNA Technologies Inc., Coralville, IA, USA), 10 μl of Light Cycler 480 SYBR Green 1 Master enzyme mix and 1 μl of cDNA sample. The conditions of the PCRs were as follows: 1 cycle at 95° C. for 5 minutes, followed by 70 cycles under the appropriate PCR conditions. Quantification was performed with the second-derivative method by monitoring the cycle number at which the fluorescent sign could be distinguished from the background. Results were analyzed with Light Cycler 480 software version 1.5.0.39 (Roche Diagnostics, Mannheim, Germany). The mRNA expression of each gene was determined by comparison to 18S ribosomal RNA as housekeeping gene from the same sample.
All reagents for Western blotting were purchased from Bio-Rad Laboratories, Hercules, CA, USA unless stated otherwise. Tissue samples were lysed in buffer containing leupeptin, aprotinin, Triton X-100, Tris-HCl, Ethylene glycol-bis (2-aminoethylether),N,N,N′,N′-tetraacetic-acid, NaF, Phenylmethylsulphonylfluoride and Na-orthovanadate (each substance were purchased from Sigma-Aldrich Co., St. Louis, MO, USA). Protein concentrations were determined using Bradford assay. […] Pre-stained protein mixture was used as marker of molecular mass. The separated proteins were transferred into nitrocellulose membranes. Non-specific binding sites were blocked in 5% non-fat dry milk containing blot solution. Membranes were incubated with monoclonal antibody specific to rat cleaved caspase-3 (Asp175) (Cell Signaling Technology, Danvers, MA, USA) diluted to 1:1000. Blots were washed and incubated (1 hour, room temperature) with peroxidase-conjugated goat anti-rabbit IgG secondary antibody (Cell Signaling Technology, Danvers, MA, USA) diluted to 1:4000. […] Bands were analyzed with Quantity One software version 4.6.9. Protein abundance was represented as Integrated Optical Density (IOD)/Ponceau S compared to controls.
Data were analyzed using GraphPad Prism software (GraphPad Software Inc., La Jolla, CA, USA).

PCP receptors = details: cited from earlier work
[1] = system: mitochondrial functions (liver); details: administered to rats or used in the preservation liquid of isolated liver; cited from earlier work
[2] = 2 h cold storage in Custodiol with 0.003 mg/mL compound, ATx, 24 hours of reperfusion
[3] = stored and subsequently transplanted kidney
[4] = transplantation after storage, vs vehicle
[5] = isolated kidneys stored in Custodiol, vs vehicle

SMILES: COCCCC/C(=N\OCCN)c1ccc(C(F)(F)F)cc1 [fluvoxamine, fluvoxamine maleate]
- Kidney function (autotransplanted kidney; [2]): substantially improved
- serum AST levels (autotransplanted kidney; [2]): lower
- serum creatinine levels (autotransplanted kidney; [2]): lower
- Levels of MCP-1 (autotransplanted kidney; autotransplanted kidneys, vs vehicle): significantly less elevated
- mRNA levels of inflammatory cytokines (IL10, IL-1α, TNFα) (autotransplanted kidney; [3]): decreased
- protein levels of inflammatory cytokines (IL10, IL-1α, TNFα) (autotransplanted kidney; [3]): decreased
- NGAL levels (autotransplanted kidney; transplantation after storage): significantly decreased
- histological damage on PAS-stained kidney sections (autotransplanted kidney; transplantation after storage, vs conventional preservation fluid (vehicle)): milder histological damage
- Tubular lumen areas (tubular dilatation) (autotransplanted kidney; transplantation after storage): significantly smaller
- Tubular lumen areas (tubular dilatation) (autotransplanted kidney; transplantation after storage, listed as FLU): less dilated
- BAX expression (mRNA) (autotransplanted kidney; [4]): significant decrease
- KIM-1 expression levels (autotransplanted kidney; [4]): significantly lower expression
- increase of HO-1 expression (autotransplanted kidney; [4]): prevented
- mRNA levels of Bcl-2 (autotransplanted kidney; [4]): significant increase
- apoptotic cells in TUNEL assay (autotransplanted kidney; transplantation after storage, vs vehicle treated kidneys): significantly less apoptotic cells
- structural damage after prolonged cold ischemia (isolated kidney; 3, 8 or 24 hours of cold ischemia with Flu vs 2 hours ischemia without Flu): less pronounced
- increase of tubular damage (tubular lumen areas) from 2 to 3 hours of cold storage (isolated kidney; Custodiol, 2 and 3 hours of cold storage): inhibited this increase of damage
- less tissue damage by histologic assay (isolated kidney; after 1.5 fold longer or even 10 fold longer preservation time than organs in same solution without fluvoxamine): 25%
- MCP-1 levels (isolated kidney; after storage, vs conventional Custodiol): less elevated
- Tubular lumen dilatation (isolated kidney; cold storage without reperfusion, compound 0.003 mg/mL in preservation solution vs solution alone): less dilated
- reducing, delaying or preventing functional and/or structural damage of a stored organ or tissue (comparison of the three agonists) (isolated kidney): surprisingly more effective than SA 4503
- reducing, delaying or preventing functional and/or structural damage of a stored organ or tissue (comparison of the three agonists) (isolated kidney; listed as Fluvoxamine): most successful of the three compounds
- KIM-1 levels (isolated kidney; [5]): decreased dramatically
- kidney structure on PAS-stained sections (isolated kidney; perfused with FLU, harvested after 2 hours of cold ischemia): better preserved
- KIM-1 levels (isolated kidney; saline): milder, though a tendency of decrease is noticed
- NGAL mRNA expression (isolated kidney; saline): Efficacy of fluvoxamine in saline was also demonstrated
- mRNA levels of Bcl-2 (isolated kidney): markedly increased
- mRNA levels of BAX (isolated kidney): decreased

SMILES: COc1ccc(CCN2CCN(CCCc3ccccc3)CC2)cc1OC [SA 4503, 1-[2-(3,4-Dimethoxyphenyl)ethyl]-4-(3-phenylpropyl)piperazine]
- BUN (Blood urea nitrogen) levels (autotransplanted kidney; [2]): significantly decreased
- Kidney function (autotransplanted kidney; [2]): substantially improved
- serum AST levels (autotransplanted kidney; [2]): lower
- serum creatinine levels (autotransplanted kidney; [2]): lower
- NGAL levels (autotransplanted kidney; transplantation after storage): significantly decreased
- Tubular lumen areas (tubular dilatation) (autotransplanted kidney; transplantation after storage): significantly smaller
- KIM-1 expression levels (autotransplanted kidney; [4]): significantly lower expression
- KIM-1 levels (isolated kidney; [5]): inhibited the increase of KIM-1
- mRNA levels of Bcl-2 (isolated kidney): no such effect
- mRNA levels of BAX (isolated kidney): decreased

SMILES: O=C(OCCN1CCOCC1)C1(c2ccccc2)CCCCC1 [PRE-084, 2-morpholin-4-dylethyl 1-phenylcyclohexane-1-carboxylate]
- IC50 (PCP receptors): > 100 µM
- KIM-1 levels (isolated kidney; [5]): inhibited the increase of KIM-1
- mRNA levels of BAX (isolated kidney): decreased

SMILES: CCCN(CCC)CCc1ccc(OC)c(OCCc2ccccc2)c1 [NE100, N-dipropyl-2-[4-methoxy-3-(2-phenylethoxy)-phenyl]-ethylamine monohydrochloride]
- KIM-1 levels: effect of adding S1R antagonist to fluvoxamine (isolated kidney): diminished the protective effect of fluvoxamine

SMILES: COc1ccc(CN2CCN(Cc3ccccc3)CC2)c(O)c1OC [BHDP, N-benzyl-N′-(2-hydroxy-3,4-dimethoxybenzyl)-piperazine]
- mitochondrial functions [1]: protected mitochondrial functions

From patent US12239125B2, “Compositions for organ preservation” (SigmaDrugs Kutató Korlátolt Felelösségü Társaság, priority 2016, dated 2025)
